Measurements as given in patent publication US20250214977A1, “STAT6 INHIBITORS AND USES THEREOF” (Kymera Therapeutics, Inc., priority 2024, published 2025).
pIC50: −log10 of the molar value.

Test system: Phosphorylation of STAT6 in human A549 cells
Experiment: Phosphorylated STAT6 (pSTAT6) flow cytometry assay in human A549 cells
Format: cell-based
Settings: read-out: STAT6 IL4 pSTAT6 assay in A549 cells: Average IC50
From the text: Example 3. Phosphorylated STAT6 (pSTAT6) Flow Cytometry Assay in Human A549 Cells
Phosphorylation of STAT6 in human A549 cells was quantitatively measured using flow cytometry technology.

Row | Compound | pIC50
1 | COc1ccccc1-c1cc(C2=CCCN(C(=O)CCn3ccnn3)C2)c(F)c2[nH]c(C(=O)N3CCNC(=O)CC3)cc12 [Example I-983] | > 7.00
2 | COc1ccncc1-c1cc(C2=CCCN(C(=O)CCn3ccnn3)C2)c(F)c2[nH]c(C(=O)N3CCN(c4ncc(F)cc4OC)CC3)cc12 [Example I-428] | > 7.00
3 | CNc1ccc(-c2cc(C3=CCCN(C(=O)CCn4ccnn4)C3)c(F)c3[nH]c(C(=O)N4CCN(C)CC4)cc23)c(OC)c1 [Example I-990] | > 7.00
4 | COc1ccccc1-c1cc(C2=CCCN(C(=O)CCn3ccnn3)C2)c(F)c2[nH]c(C(=O)N3CCN(c4ncnc5[nH]cnc45)CC3)cc12 [Example I-946] | > 7.00
5 | COc1ccccc1-c1cc(C2=CCCN(C(=O)CCn3ccnn3)C2)c(F)c2[nH]c(C(=O)N3CCC(c4ccccc4OC)CC3)cc12 [Example I-422] | > 7.00
6 | C=C(C)c1cc(C2=CCCN(C(=O)CCn3ccnn3)C2)c(F)c2[nH]c(C(=O)N3CCN(c4ncc(F)cc4OC)CC3)cc12 [Example I-675] | > 7.00
7 | 2-(3-(1-(cyclopropylmethyl)-7-(2-ethyl-6-methylpyridin-3-yl)-5-(4-(5-fluoro-3-methoxypyridin-2-yl)piperazine-1-carbonyl)-1H-indol-2-yl)-5,6-dihydropyridin-1(2H)-yl)-2-oxoacetic acid [Example I-1228] | > 7.00
8 | CCOc1ccccc1-c1cc(C2=CCCN(C(=O)CCn3ccnn3)C2)c(F)c2[nH]c(C(=O)N3CCN(c4ncccc4OC)CC3)cc12 [Example I-412] | < 4.00
9 | COc1ccncc1-c1cc(C2=CCCN(C(=O)CCn3ccnn3)C2)c(F)c2[nH]c(C(=O)N3CC=C(c4ncc(F)cc4OC)CC3)cc12 [Example I-442] | > 7.00
10 | CCn1ncc2c1CN(C(=O)c1cc3c(-c4ccc(C5CC5)nc4C)cc(C4=CCCN(C(=O)CCn5ccnn5)C4)c(F)c3[nH]1)C2 [Example I-762] | < 4.00
11 | COc1cc(F)ccc1-c1cc(C2=CCCN(C(=O)CCn3ccnn3)C2)c(F)c2[nH]c(C(=O)N3CCN(c4ncccc4OC4CC4)CC3)cc12 [Example I-594] | > 7.00
12 | CCc1cc(C)ncc1-c1cc(C2=CCCN(C(=O)CCn3cccn3)C2)c(F)c2[nH]c(C(=O)N3CCN(c4cc(C)ccc4OC)CC3)cc12 [Example I-515] | > 7.00
13 | COc1ccccc1-c1cc(C2=CCCN(C(=O)CCn3ccnn3)C2)c(F)c2[nH]c(C(=O)N3CCN(c4ccc(C(F)(F)F)cc4F)CC3)cc12 [Example I-932] | 6.00 to 7.00
14 | COc1cc(F)cnc1N1CCN(C(=O)c2cc3c(-c4ccnc(F)c4OC)cc(C4=CCCN(C(=O)CCn5ccnn5)C4)c(F)c3[nH]2)CC1 [Example I-656] | > 7.00
15 | COc1ccccc1N1CCN(C(=O)c2cc3c(-c4cnc5ccccc5c4OC)cc(C4=CCCN(C(=O)CCn5ccnn5)C4)c(F)c3[nH]2)CC1 [Example I-448] | > 7.00
16 | COc1cc(F)cnc1N1CCN(C(=O)c2cc3c(-c4ccnc(N5CCOCC5)c4)cc(C4=CCCN(C(=O)CCn5ccnn5)C4)c(F)c3[nH]2)CC1 [Example I-680] | > 7.00
17 | COc1ccccc1-c1cc(C2=CCCN(C(=O)CCn3ccnn3)C2)c(F)c2[nH]c(C(=O)N3CCN(c4ccnnc4O)CC3)cc12 [Example I-908] | > 7.00
18 | COc1cc(F)cnc1N1CCN(C(=O)c2cc3c(-c4ccncc4C(C)C)cc(C4=CCCN(C(=O)CCn5cccn5)C4)c(F)c3[nH]2)CC1 [Example I-685] | > 7.00
19 | COc1ccccc1-c1cc(C2=CCCN(C(=O)[C@@H]3Cc4ccccc4CN3C=O)C2)cc2cc(C(=O)N(C)C)oc12 (single isomer, unassigned) [Example I-805] | 4.00 to 5.00
20 | COc1ccccc1-c1cc(C2=CCCN(C(=O)[C@H]3Cc4ccccc4CN3C=O)C2)cc2cc(C(=O)N(C)C)oc12 [Example I-839] | > 7.00

Row | Compound | pIC50
21 | CN(C)C(=O)c1cc2ccc(C3=CCCN(C(=O)CCn4ccnn4)C3)cc2s1 [Example I-816] | 6.00 to 7.00
22 | COc1cccnc1N1CCN(C(=O)c2cc3c(-c4cccc(F)c4OC)cc(C4=CCCN(C(=O)CCn5ccnn5)C4)c(F)c3[nH]2)CC1 [Example I-399] | < 4.00
23 | CCCCCCc1cc(C2=CCCN(C(=O)CCn3ccnn3)C2)c(F)c2[nH]c(C(=O)N3CCN(c4ncc(F)cc4OC)CC3)cc12 [Example I-695] | < 4.00
24 | COc1ncccc1-c1cc(C2=CCCN(C(=O)CCn3ccnn3)C2)c(F)c2[nH]c(C(=O)N3CCN(C4CC4)CC3)cc12 [Example I-602] | > 7.00
25 | COc1cccnc1N1CCN(C(=O)c2cc3ccc(C4=CCCN(C(C)=O)C4)c(F)c3[nH]2)CC1 [Example I-902] | 5.00 to 6.00
26 | COc1cccnc1N1CCN(C(=O)c2cc3c(-c4cccc(F)c4OC)cc(C4=CCCN(C(=O)CCn5ccnn5)C4)c(F)c3[nH]2)C(C)C1 (centres unmarked) [Example I-973] | 6.00 to 7.00
27 | CCc1cnccc1-c1cc(C2=CCCN(C(=O)CCn3ccnn3)C2)c(F)c2[nH]c(C(=O)N3CCN(c4ncc(F)cc4OC)CC3)cc12 [Example I-689] | > 7.00
28 | COc1cc(F)cnc1N1CCN(C(=O)c2cc3c(-c4cccc(C5(C#N)CC5)c4)cc(C4=CCCN(C(=O)CCn5ccnn5)C4)c(F)c3[nH]2)CC1 [Example I-649] | > 7.00
29 | CCC/C=C/c1cc(C2=CCCN(C(=O)CCn3ccnn3)C2)c(F)c2[nH]c(C(=O)N3CCN(c4ncc(F)cc4OC)CC3)cc12 [Example I-677] | > 7.00
30 | COc1ccccc1-c1cc(C2=CCCN(C(=O)CCn3ccnn3)C2)c(F)c2[nH]c(C(=O)N3CCN(c4nccc5[nH]ccc45)CC3)cc12 [Example I-966] | > 7.00
31 | COc1ccccc1-c1cc(C2=CCCN(C(=O)CCn3ccnn3)C2)c(F)c2[nH]c(C(=O)N3CCN(c4ncc(C)cc4OC)CC3)cc12 [Example I-939] | > 7.00
32 | COc1cc(F)cnc1N1CCN(C(=O)c2cc3c(-c4cccc(C5CC5)c4)cc(C4=CCCN(C(=O)CCn5ccnn5)C4)c(F)c3[nH]2)CC1 [Example I-674] | 6.00 to 7.00
33 | COc1cc(F)cnc1N1CCN(C(=O)c2cc3c(C(F)F)cc(C4=CCCN(C(=O)CCn5ccnn5)C4)c(F)c3[nH]2)CC1 [Example I-532] | > 7.00
34 | CCn1ncc2c1CN(C(=O)c1cc3c(-c4ccncc4OC)cc(C4=CCCN(C(C)=O)C4)c(F)c3[nH]1)C2 [Example I-715] | 4.00 to 5.00
35 | COc1ccccc1-c1cc(C2=CCCN(C(=O)CCn3ccnn3)C2)c(F)c2[nH]c(C(=O)N3CCN(C)C(c4ccccc4)C3)cc12 (centres unmarked) [Example I-911] | 6.00 to 7.00
36 | COc1ccccc1-c1cc(C2=CCCN(C(=O)CCn3ccnn3)C2)c(F)c2[nH]c(C(=O)N3CCN(c4ncccc4Oc4ccccc4)CC3)cc12 [Example I-334] | > 7.00
37 | COc1ccccc1-c1cc(C2=CCCN(C(=O)CCn3ccnn3)C2)c(F)c2[nH]c(C(=O)N3CC=C(c4ncccc4OC)CC3)cc12 [Example I-425] | > 7.00
38 | COc1cccnc1N1CCN(C(=O)c2cc3c(-c4ccccc4OC(F)(F)F)cc(C4=CCCN(C(=O)CCn5ccnn5)C4)c(F)c3[nH]2)CC1 [Example I-558] | > 7.00
39 | COc1cc(F)cnc1N1CCN(C(=O)c2cc3c(-c4cccc(C(C)(C)C#N)c4)cc(C4=CCCN(C(=O)CCn5ccnn5)C4)c(F)c3[nH]2)CC1 [Example I-682] | > 7.00

Other lines, results leading:

Row | pIC50 | Compound
40 | > 7.00 | COc1cc(F)cnc1N1CCN(C(=O)c2cc3c(-c4cccc(CN5CCOCC5)c4)cc(C4=CCCN(C(=O)CCn5ccnn5)C4)c(F)c3[nH]2)CC1 [Example I-1154]
41 | > 7.00 | CN(C)C(=O)c1cc2ccc([C@H]3CCCN(C(=O)CCn4ccnn4)C3)c(F)c2[nH]1 (single isomer, unassigned) [Example I-1187]
42 | > 7.00 | CCOc1ccncc1-c1cc(C2=CCCN(C(=O)CCn3ccnn3)C2)c(F)c2[nH]c(C(=O)N3CCN(c4cnc(C)nc4OC)CC3)cc12 [Example I-1036]
43 | 5.00 to 6.00 | COc1ccccc1-c1cc(C2=CCCN(C(C)=O)C2)c(F)c2sc(C(=O)N3CCN(c4ncccc4OC)CC3)cc12 [Example I-1106]
44 | > 7.00 | CCCN1CCN(C(=O)c2cc3c(-c4ccccc4OC)cc(C4=CCCN(C(=O)CCn5ccnn5)C4)c(F)c3[nH]2)C[C@@H]1C [Example I-997]
45 | > 7.00 | CCOc1ccncc1-c1cc(C2=CCCN(C(=O)CCn3ccnn3)C2)c(F)c2[nH]c(C(=O)N3CCN(c4ncncc4OC)CC3)cc12 [Example I-1108]
46 | 6.00 to 7.00 | COc1ccccc1-c1cc(C2=CCCN(C(=O)CCn3ccnn3)C2)c(F)c2[nH]c(C(=O)Nc3ccnn3C)cc12 [Example I-993]
47 | > 7.00 | COc1ccccc1-c1cc(C2=CCCN(C(=O)CCn3ccnn3)C2)cc2cc(C(=O)N(C)C)oc12 [Example I-1103]
48 | 6.00 to 7.00 | COC(=O)c1cnn(-c2cc(C3=CCCN(C(=O)CCn4ccnn4)C3)cc3cc(C(=O)N(C)C)oc23)c1 [Example I-1049]
49 | > 7.00 | CCc1ccncc1-c1cc(C2=CCCN(C(=O)CCn3ccnn3)C2)c(F)c2[nH]c(C(=O)N3CCN(c4ncc(C(F)(F)F)cc4OC)CC3)cc12 [Example I-1040]
50 | > 7.00 | COc1ccccc1-c1cc(C2=CCCN(C(=O)CCn3ccnn3)C2)c(F)c2[nH]c(C(=O)N3CCN(c4cncn4C)CC3)cc12 [Example I-1026]
51 | > 7.00 | COc1ccccc1-c1cc(C2=CCCN(C(=O)CCn3ccnn3)C2)c(F)c2[nH]c(C(=O)N3CCC(=O)C3)cc12 [Example I-1031]
52 | > 7.00 | COc1cc(F)cnc1N1CCN(C(=O)c2cc3c(-c4ccc(C(F)(F)F)cc4CO)cc(C4=CCCN(C(=O)CCn5ccnn5)C4)c(F)c3[nH]2)CC1 [Example I-1167]
53 | > 7.00 | COc1ccccc1-c1cc(C2=CCCN(C(=O)CCn3ccnn3)C2)c(F)c2[nH]c(C(=O)N3CCN(Cc4cccn(C)c4=O)CC3)cc12 [Example I-1198]
54 | 6.00 to 7.00 | COc1cc(F)cnc1N1CCN(C(=O)c2cc3c(C4=CCC5(CC4)CC5)cc(C4=CCCN(C(=O)CCn5ccnn5)C4)c(F)c3[nH]2)CC1 [Example I-1159]
55 | > 7.00 | COc1cccc(/C=C/c2cc(C3=CCCN(C(=O)CCn4ccnn4)C3)c(F)c3[nH]c(C(=O)N4CCN(c5ncc(F)cc5OC)CC4)cc23)c1 [Example I-1129]
56 | < 4.00 | CN(C(=O)c1cc2c(-c3cncnc3C3CC3)cc(C3=CCCN(C(=O)CCn4ccnn4)C3)c(F)c2[nH]1)C1CC1 [Example I-1043]
